Source: patent publication US20250161312A1, “A METHOD FOR THE TREATMENT OF CHEMOTHERAPEUTIC DRUG-INDUCED NEPHROTOXICITY” (INSTITUT NATIONAL DE LA SANTÉ ET DE LA RECHERCHE MÉDICALE, priority 2022, published 2025)

Tests used:
RPTEC/hTERT cells = assay: Cell viability assay (CellTiter-Glo); assay type: cell-based, human; conditions: cisplatin 50 μM, KW-6002 0.5-12.8 μM, 48 hours
Protocol: Cells were cultured in DMEM/F12 medium (Dulbecco's modified Eagle's medium and Ham's F12 medium, Thermo Fisher) supplemented with 1% penicillin/streptomycin, 5 pmol/L triiodo-L-thyronine, 10 ng/ml recombinant human epidermal growth factor, 3.5 μg/mL ascorbic acid, 5.0 μg/mL human transferrin, 5.0 μg/mL insulin, 25 ng/mL prostaglandin E1, 25 ng/ml hydrocortisone, 8.65 ng/mL sodium selenite, 0.1 mg/mL G418 and 1.2 g/L sodium bicarbonate (Sigma). Lewis lung carcinoma mouse LLC1 cells were cultured in DMEM glutamax (Thermo Fisher) containing 10% fetal calf serum and 1% penicillin/streptomycin. Cells were cultured at 37° C. in a humidified atmosphere of 5% CO2.
Viability was assessed using the CellTiter-Glo® Luminescent Cell Viability Assay (Promega) according to manufacturer's recommendations.

kidney mouse sections = assay: Red Oil staining of kidney mouse sections; assay type: in vivo; conditions: Red Oil staining, kidney samples
Protocol: (§1) FIG. 6. KW6002 alleviates the cisplatin-induced nephrotoxicity associated with apoptosis, lipid metabolism, and oxidative stress. (A) Tail moment assessed by comet assay; 50 cells/condition were analyzed. (B and C) KW6002 attenuates cisplatin-induced renal lipid accumulation, assessed by Red Oil staining. […] Results are the mean±SEM (n=6-9 mice/group). (F-H) KW6002 attenuated cisplatin-induced oxidative stress in RPTEC/hTERT1 cells. (F and G) Gene expression of Nrf2 (F) and HO1 (G). […] Results are the mean±SEM (n=3 independent experiments).
10 μm frozen kidney mouse sections were fixed with ethanol (60%) then incubated for 15 min with Oil Red O Solution (Fisher Biotech) dissolved in isopropanol. After several washes with ddH2O, samples were incubated 3 min with hematoxylin. Lipid droplets are stained in red whereas nuclei appeared blue. […] RPTEC/hTERT cells were fixed with ethanol (60%) then incubated for 15 min with Oil Red O Solution. The cells were washed three times with ddH2O and incubated 3 min with hematoxylin. Coverslips were rinsed with H2O before mounting on microscope slides using glycerol gelatin aqueous slide mounting medium (Sigma). Quantifications were performed blindly using ImageJ software. […] The resulting red color images were quantified using a custom threshold (0.173 for RPTEC/hTERT cells and 0.140 for kidney stainings).

RPTEC/hTERT1 cells [1] = assay: Comet assay in RPTEC/hTERT1 cells; assay type: cell-based, human; conditions: FIG. 6A
Protocol: as §1
(§2) Treated cells were suspended (60,000 cells/mL) in low-melt agarose (1613111, Bio-Rad) 0.5% in PBS at 42° C. The suspension was then immediately spread on a comet slide (4250-200-03, R&D Systems). Agarose was allowed to cool down for 20 minutes at 4° C. Then, cell membranes were permeabilized with a lysis solution (2.5M NaCl, 100 mM EDTA, 10 mM Tris-HCl, 1% Triton X-100 [pH 10]) at 4° C. for 1 hour. […] The images were analyzed using an ImageJ in-home macro, in which the head (the nucleus) and tail (the DNA that migrated) of the comet were delimited to get the fluorescence intensity of the head, the fluorescence intensity of the tail, and the length of the tail. The calculation of tail moments was done using the following formula: (length of the comet tail×fluorescence intensity of the tail)/total fluorescence intensity (head+tail).

RPTEC/hTERT1 cells [2] = assay: Catalase activity; assay type: cell-based, human; conditions: cisplatin 50 μM, KW6002 25 μM, 48 hours
Protocol: Catalase activity was assessed using the Catalase Colorimetric Activity Kit (Thermo Fisher Scientific) according to the manufacturer's instructions.

RPTEC/hTERT1 cells [3] = assay: Cell efflux (EFLUXX-ID) in RPTEC/hTERT1 cells; assay type: cell-based, human; conditions: cisplatin-treated cells, flow cytometry, FIG. 4C
Protocol: FIG. 4. […] (A) Platinum quantification (n=12-20/group) and relative expression of influx transporters (CTR1 and OCT2) and efflux transporters (ATP7B, MATE1, MATE2 and ABCC2; n=10-12/group) in kidney. (B) Platinum quantification (n=12-20/group) and relative expression of influx transporters (CTR1) and efflux transporters (ATP7B, MATE1, and ABCC2; n=5-6/group) in tumors. […] Results are the mean±SEM (n=3 independent experiments)
The basic cell efflux function was assessed using an EFLUXX-ID Green Multidrug Resistance Assay Kit (ENZO Life Sciences). Briefly, 2.5×10^5 cells/condition were collected, washed with PBS, and incubated with the EFLUXX-ID Green Detection Reagent for 30 minutes at 37° C., and then efflux was measured immediately by flow cytometry (CytoFLEX LX, Beckman Coulter). All experiments were performed in triplicate, with the measurement of 10,000 individual cells. Data were analyzed using Kaluza Analysis Software (Beckman Coulter).

H1975 cells = assay: Comet assay in H1975 cells; assay type: cell-based; conditions: FIG. 7E
Protocol: FIG. 7. […] Caspase 3/-7 activity (n=3 independent experiments) (A) and the number of γH2AX nuclear foci (n=36-63 nuclei/group) (B) were determined. […] Results are expressed as the mean±SEM (n=3 independent experiments). (E) Tail moment was assessed by comet assay. A total of 50 cells per condition were analyzed. *** P<0.001; 1-way ANOVA followed by Tukey's post hoc test. […] (I) KW6002 increased yH2AX expression in tumors from mice of the LLC1 syngeneic model. Quantification of nuclear yH2AX expression.
as §2

CCn1c(=O)c2c(nc(/C=C/c3ccc(OC)c(OC)c3)n2C)n(CC)c1=O [KW-6002, 8-[(E)-2-(3,4-dimethoxyphenyl)vinyl]-1,3-diethyl-7-methyl-3,7-dihydro-1H-purine-2,6-dione]
cisplatin-induced cell death (RPTEC/hTERT cells): reduced cisplatin-induced cell death in a concentration-dependent manner
cisplatin-induced cell death (RPTEC/hTERT cells; listed as KW6002): concentration-dependently reduced cisplatin-induced cell death
cisplatin-induced accumulation of lipid droplets in kidney (kidney mouse sections): significantly reduced
cisplatin-induced DNA damage (tail moment) (RPTEC/hTERT1 cells [1]): inhibiting
cisplatin-induced decrease in catalase activity (RPTEC/hTERT1 cells [2]): normalized
efflux (RPTEC/hTERT1 cells [3]): strongly enhanced
DNA damage: tail moment (H1975 cells): did not impede the antitumoral effect of cisplatin
